From PMC8213057, “Targeting ALK2: An Open Science Approach to Developing Therapeutics for the Treatment of Diffuse Intrinsic Pontine Glioma” (Journal of Medicinal Chemistry, 2020)

Experiments:
STK25/YSK1 = STK25/YSK1 (Homo sapiens, UniProt O00506); test: biochemical; settings: read-out: % enzyme activity, 1 μM; Run 1, Run 2
ZAP70 = biological target: T1, ZAP70 (Homo sapiens, UniProt P43403); test: biochemical; settings: read-out: % enzyme activity, 1 μM; Run 1, Run 2
T1 sequence (P43403 1-619): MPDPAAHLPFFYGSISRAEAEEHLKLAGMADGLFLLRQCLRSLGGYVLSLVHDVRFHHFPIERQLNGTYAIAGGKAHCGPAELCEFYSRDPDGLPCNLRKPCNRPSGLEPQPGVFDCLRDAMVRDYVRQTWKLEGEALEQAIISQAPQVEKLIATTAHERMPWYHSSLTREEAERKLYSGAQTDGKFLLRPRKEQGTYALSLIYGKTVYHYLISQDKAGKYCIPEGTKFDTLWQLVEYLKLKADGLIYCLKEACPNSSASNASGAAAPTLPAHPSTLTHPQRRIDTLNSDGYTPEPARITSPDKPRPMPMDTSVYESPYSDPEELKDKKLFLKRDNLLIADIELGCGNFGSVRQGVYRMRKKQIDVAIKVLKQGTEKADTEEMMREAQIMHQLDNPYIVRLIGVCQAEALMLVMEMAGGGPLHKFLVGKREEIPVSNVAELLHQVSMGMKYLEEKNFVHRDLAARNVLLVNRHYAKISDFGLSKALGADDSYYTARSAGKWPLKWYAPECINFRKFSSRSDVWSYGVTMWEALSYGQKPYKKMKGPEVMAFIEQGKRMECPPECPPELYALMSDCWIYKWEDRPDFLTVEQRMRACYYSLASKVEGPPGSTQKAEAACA

CYP2C19 = CYP2C19 (Homo sapiens, UniProt P33261); settings: read-out: CYP2C19 IC50; human liver microsomes
CYP2C19, sequence (P33261 whole entry): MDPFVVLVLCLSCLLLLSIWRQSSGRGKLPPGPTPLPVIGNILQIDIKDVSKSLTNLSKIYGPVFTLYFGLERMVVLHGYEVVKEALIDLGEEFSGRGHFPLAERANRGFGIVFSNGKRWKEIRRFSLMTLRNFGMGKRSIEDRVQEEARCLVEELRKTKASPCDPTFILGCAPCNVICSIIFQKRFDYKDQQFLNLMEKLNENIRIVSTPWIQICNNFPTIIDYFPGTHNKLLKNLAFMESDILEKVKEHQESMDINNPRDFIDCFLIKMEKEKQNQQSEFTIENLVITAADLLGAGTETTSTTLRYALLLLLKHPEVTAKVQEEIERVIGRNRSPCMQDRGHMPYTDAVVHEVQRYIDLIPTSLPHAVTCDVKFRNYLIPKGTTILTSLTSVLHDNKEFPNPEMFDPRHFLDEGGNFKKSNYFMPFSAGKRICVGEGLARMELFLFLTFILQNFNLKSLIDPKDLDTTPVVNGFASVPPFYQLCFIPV

RSK1 = RSK1 (Homo sapiens, UniProt Q15418); settings: 1 μM; Run 1, Run 2
RSK1, sequence (Q15418 whole entry): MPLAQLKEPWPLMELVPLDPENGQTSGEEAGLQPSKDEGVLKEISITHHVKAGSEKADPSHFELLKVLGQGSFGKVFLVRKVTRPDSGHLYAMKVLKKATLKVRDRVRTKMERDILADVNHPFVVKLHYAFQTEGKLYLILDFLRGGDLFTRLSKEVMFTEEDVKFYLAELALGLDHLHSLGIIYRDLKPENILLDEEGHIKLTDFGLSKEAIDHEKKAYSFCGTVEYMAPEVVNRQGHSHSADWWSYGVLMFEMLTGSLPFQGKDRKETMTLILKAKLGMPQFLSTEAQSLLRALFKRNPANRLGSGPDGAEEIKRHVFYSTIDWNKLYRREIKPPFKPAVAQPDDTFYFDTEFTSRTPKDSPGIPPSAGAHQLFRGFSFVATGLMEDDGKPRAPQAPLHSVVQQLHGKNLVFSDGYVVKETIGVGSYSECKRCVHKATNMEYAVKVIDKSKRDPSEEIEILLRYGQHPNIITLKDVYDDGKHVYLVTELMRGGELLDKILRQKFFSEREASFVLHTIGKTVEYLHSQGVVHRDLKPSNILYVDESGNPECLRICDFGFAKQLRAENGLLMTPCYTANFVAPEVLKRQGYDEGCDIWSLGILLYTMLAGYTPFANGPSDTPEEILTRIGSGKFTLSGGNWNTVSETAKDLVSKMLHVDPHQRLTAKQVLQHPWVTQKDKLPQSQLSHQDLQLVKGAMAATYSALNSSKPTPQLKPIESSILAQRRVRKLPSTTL

PKA = PKA (Homo sapiens, UniProt P17612); settings: 1 μM; Run 1, Run 2
PYK2 = PYK2 (Homo sapiens, UniProt Q14289); test: biochemical; settings: read-out: % enzyme activity, 1 μM; Run 1, Run 2
PYK2, sequence (Q14289 whole entry): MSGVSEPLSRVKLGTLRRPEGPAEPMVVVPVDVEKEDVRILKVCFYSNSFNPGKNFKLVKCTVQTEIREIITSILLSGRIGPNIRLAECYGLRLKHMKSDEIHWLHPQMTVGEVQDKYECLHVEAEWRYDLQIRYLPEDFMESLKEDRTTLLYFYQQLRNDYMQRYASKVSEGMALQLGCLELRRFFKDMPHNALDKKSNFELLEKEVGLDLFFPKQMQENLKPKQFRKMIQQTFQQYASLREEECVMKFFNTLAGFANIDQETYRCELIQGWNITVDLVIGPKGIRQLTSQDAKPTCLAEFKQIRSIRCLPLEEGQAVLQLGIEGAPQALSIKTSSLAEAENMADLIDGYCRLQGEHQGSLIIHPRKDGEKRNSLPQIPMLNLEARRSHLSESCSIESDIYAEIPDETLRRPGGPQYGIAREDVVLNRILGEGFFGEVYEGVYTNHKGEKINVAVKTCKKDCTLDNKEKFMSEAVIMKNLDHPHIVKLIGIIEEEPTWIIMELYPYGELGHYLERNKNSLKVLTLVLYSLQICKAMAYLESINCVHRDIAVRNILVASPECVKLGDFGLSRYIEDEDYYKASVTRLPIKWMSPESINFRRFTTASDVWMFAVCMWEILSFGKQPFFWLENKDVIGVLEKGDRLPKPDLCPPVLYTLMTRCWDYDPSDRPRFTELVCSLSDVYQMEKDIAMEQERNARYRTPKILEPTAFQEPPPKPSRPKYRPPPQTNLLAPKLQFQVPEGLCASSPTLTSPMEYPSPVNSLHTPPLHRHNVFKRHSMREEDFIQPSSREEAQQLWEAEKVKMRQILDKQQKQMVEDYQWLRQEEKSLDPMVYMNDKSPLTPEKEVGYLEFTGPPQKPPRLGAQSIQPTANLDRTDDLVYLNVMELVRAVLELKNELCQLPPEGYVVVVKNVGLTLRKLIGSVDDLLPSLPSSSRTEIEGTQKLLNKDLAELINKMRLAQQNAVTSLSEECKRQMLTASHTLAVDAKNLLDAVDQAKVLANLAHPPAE

FLT3 = biological target: T2, FLT3 (Homo sapiens, UniProt P36888); test: 375-member kinase panel; assay type: biochemical; settings: Run 1, Run 2; for % enzyme activity: 1 μM; for remaining activity at 1 µM: read-out: % enzyme activity, 1 μM
T2 construct: purchased Reaction Biology Corporation
T2 sequence (P36888 27-993): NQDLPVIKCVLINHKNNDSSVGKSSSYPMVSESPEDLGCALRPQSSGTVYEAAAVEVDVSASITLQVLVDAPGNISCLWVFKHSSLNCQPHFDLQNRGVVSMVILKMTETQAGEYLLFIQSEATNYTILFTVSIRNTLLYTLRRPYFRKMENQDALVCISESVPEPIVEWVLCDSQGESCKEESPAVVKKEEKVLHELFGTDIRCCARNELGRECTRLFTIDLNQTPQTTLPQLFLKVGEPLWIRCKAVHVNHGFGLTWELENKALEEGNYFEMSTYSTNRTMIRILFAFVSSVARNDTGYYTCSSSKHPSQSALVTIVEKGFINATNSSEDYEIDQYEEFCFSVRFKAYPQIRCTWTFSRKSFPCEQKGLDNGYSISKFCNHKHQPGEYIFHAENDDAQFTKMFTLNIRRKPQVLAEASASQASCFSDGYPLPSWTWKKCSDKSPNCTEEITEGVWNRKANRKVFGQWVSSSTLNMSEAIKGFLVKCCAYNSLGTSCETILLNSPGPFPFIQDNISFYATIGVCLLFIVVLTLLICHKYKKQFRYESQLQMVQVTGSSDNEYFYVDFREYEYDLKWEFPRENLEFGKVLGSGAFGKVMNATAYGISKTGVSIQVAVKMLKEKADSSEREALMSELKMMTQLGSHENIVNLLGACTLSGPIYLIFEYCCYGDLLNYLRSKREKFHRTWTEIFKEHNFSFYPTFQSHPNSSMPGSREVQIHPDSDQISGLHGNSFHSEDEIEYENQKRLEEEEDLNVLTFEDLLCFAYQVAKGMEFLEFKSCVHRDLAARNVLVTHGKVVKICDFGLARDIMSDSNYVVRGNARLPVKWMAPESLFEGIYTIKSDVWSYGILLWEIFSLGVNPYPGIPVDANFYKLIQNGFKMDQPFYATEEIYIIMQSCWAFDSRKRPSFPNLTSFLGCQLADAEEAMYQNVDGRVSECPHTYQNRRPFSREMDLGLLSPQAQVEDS

CAMK1a = CAMK1a (Homo sapiens, UniProt Q14012); settings: 1 μM; Run 1, Run 2
CAMK1a, sequence (Q14012 whole entry): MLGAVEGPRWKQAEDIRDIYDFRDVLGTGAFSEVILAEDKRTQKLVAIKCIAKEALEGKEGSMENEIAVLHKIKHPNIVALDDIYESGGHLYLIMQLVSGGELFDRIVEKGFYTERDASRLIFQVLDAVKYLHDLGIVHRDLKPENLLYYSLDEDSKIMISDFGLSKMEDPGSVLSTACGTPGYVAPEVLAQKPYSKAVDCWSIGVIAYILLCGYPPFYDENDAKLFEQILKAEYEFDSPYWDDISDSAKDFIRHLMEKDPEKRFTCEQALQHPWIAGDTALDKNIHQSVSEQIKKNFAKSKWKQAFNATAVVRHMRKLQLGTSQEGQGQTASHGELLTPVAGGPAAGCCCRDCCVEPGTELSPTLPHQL

TLK1 = biological target: T3, TLK1 (Homo sapiens, UniProt Q9UKI8); test: biochemical; settings: read-out: % enzyme activity, 1 μM; Run 1, Run 2
T3 sequence (Q9UKI8 1-766): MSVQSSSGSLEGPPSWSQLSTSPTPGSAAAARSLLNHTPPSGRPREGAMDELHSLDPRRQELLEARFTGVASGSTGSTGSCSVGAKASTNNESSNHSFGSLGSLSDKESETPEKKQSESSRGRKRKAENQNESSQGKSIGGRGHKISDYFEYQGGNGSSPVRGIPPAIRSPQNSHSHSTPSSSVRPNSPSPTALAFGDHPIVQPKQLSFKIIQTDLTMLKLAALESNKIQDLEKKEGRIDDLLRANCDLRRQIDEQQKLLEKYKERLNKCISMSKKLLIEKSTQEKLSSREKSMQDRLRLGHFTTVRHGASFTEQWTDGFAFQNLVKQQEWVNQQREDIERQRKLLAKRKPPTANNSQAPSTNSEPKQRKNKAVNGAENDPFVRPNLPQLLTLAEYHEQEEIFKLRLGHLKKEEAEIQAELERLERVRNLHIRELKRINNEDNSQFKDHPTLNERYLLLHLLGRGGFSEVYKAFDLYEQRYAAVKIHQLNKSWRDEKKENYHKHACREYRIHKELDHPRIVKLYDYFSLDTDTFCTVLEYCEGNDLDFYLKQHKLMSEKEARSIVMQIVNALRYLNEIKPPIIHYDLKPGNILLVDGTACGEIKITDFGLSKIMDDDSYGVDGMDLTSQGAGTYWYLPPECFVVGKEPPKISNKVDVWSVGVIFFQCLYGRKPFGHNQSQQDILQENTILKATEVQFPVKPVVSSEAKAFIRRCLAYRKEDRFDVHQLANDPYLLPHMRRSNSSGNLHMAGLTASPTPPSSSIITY

STK25/YSK1, sequence (O00506 whole entry): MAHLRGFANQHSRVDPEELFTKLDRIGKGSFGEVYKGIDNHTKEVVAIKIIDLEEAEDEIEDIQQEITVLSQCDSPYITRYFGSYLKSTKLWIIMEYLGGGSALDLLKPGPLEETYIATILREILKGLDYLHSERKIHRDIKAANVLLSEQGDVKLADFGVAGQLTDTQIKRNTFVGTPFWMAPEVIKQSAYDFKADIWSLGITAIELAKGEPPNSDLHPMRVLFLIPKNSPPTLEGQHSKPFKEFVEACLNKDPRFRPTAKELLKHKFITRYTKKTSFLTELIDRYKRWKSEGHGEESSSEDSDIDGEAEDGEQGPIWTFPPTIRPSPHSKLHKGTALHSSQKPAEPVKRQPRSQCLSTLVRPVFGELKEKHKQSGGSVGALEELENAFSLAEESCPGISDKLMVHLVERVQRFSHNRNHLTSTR

Structure (SMILES) | remaining activity at 1 µM (STK25/YSK1) [%] | remaining activity at 1 µM (ZAP70) [%] | IC50 (CYP2C19) [µM] | % enzyme activity (RSK1) [%] | % enzyme activity (PKA) [%] | remaining activity at 1 µM (PYK2) [%] | % enzyme activity (FLT3) [%] | remaining activity at 1 µM (FLT3) [%] | % enzyme activity (CAMK1a) [%] | remaining activity at 1 µM (TLK1) [%]
COc1cc(-c2cncc(-c3ccc(N4CCN(C)CC4)cc3)c2C)cc(F)c1C(N)=O [Compound 26a, 2-Fluoro-6-methoxy-4-(4-methyl-5-(4-(4-methylpiperazin-1-yl)phenyl)pyridin-3-yl)benzamide] | 95.7 | 96.2 | > 50 | 97.99 | 96.94 | 85.9 | 76.15 | 77.1 | 92.25 | 108
COc1cc(-c2cncc(-c3ccc(N4C[C@@H](C)N(C)[C@@H](C)C4)cc3)c2C)cc(F)c1C(N)=O [Compound 26c, 2-Fluoro-6-methoxy-4-(4-methyl-5-(4-((3R,5S)-3,4,5-trimethylpiperazin-1-yl)phenyl)pyridin-3-yl)benzamide] | 96.1 | 98.7 | > 50 | 101.00 | 95.62 | 88.6 | 81.48 | 84.3 | 96.82 | 104
